Assay results from US20250145665A1, “MACROCYCLIC PEPTIDES USEFUL AS MODULATORS OF TNF ALPHA” (Bristol-Myers Squibb Company, priority 2023, published 2025).
Starred links: 1 amine or outer side, 2 acyl side, 3 side chain; linkers in the order of their positions; H or OH if unused. Positions of bridges follow the written chain, without caps; N, C: chain ends. Non-standard residues stand in square brackets, D forms with d. Residues, ends and D or L forms follow the SMILES beside them. *: point of attachment. Bip(4'-NHCO-C6H4-3-CH2COOH) = N[C@@H](Cc1ccc(-c2ccc(NC(=O)c3cccc(CC(=O)O)c3)cc2)cc1)C(=O)O; Bip(4'-NHCO-C6H4-4-CH2COOH) = N[C@@H](Cc1ccc(-c2ccc(NC(=O)c3ccc(CC(=O)O)cc3)cc2)cc1)C(=O)O; dArg(Nω-CH2C6H4-3-CH2Gua) = N=C(N)NCc1cccc(CNC(=N)NCCC[C@@H](N)C(=O)O)c1; dArg(ω-(2S)-2,3-diOHpropyl) = N=C(NCCC[C@@H](N)C(=O)O)NC[C@H](O)CO; Bip(4'-NH) = O=C([C@H](Cc1ccc(-c2ccc(N[*:3])cc2)cc1)N[*:1])[*:2]; Bip(4'-COOH) = N[C@@H](Cc1ccc(-c2ccc(C(=O)O)cc2)cc1)C(=O)O; Bip(4'-NHAc) = CC(=O)Nc1ccc(-c2ccc(C[C@H](N)C(=O)O)cc2)cc1; Ala(imidazol-2-yl) = N[C@@H](Cc1ncc[nH]1)C(=O)O; Ala(morpholin-4-yl) = N[C@@H](CN1CCOCC1)C(=O)O; Benzoyl(3-OCH2COOH) = O=C(O)COc1cccc(C(=O)*)c1; Bip = N[C@@H](Cc1ccc(-c2ccccc2)cc1)C(=O)O; Val(3-OH) = CC(C)(O)[C@H](N)C(=O)O; 2Pal = N[C@@H](Cc1ccccn1)C(=O)O; 2Thi = N[C@@H](Cc1cccs1)C(=O)O; Cha = N[C@@H](CC1CCCCC1)C(=O)O; Chg = N[C@H](C(=O)O)C1CCCCC1; Tle = CC(C)(C)[C@H](N)C(=O)O; Sar = CNCC(=O)O

Molecular target: TNFα (Homo sapiens, UniProt P01375)
Sequence (P01375 77-233 limits assumed): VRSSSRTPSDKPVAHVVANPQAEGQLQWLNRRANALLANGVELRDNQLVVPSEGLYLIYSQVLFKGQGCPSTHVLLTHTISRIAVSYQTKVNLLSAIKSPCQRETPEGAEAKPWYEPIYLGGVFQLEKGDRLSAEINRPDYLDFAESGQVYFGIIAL
Assay: TNF-Induced HEK-Blue Assay
Assay type: cell-based
Settings: HEK-Blue-CD40L cells, NF-kB-driven secreted alkaline phosphatase reporter; TNFα 0.5 ng/ml; 18 h; read-out: TNF induced HEK-Blue assay IC50 value
Description: TNFα (final concentration 0.5 ng/ml) or CD40L (final concentration 30 ng/ml) in assay buffer [DMEM, 4.5 g/l glucose (Gibco, Cat. 21063-029), 10% FBS (Sigma, F4135), 1% Penicillin-Streptomycin (Gibco, Cat. 15140-122), 1% Anti-Anti (Gibco, Cat. 15240-112) and 2 mM L-glutamine (Gibco, Cat. 25030-081)] was then added to the assay plate. After a 30 minute pre-incubation at 37° C. and 5% CO2, HEK-Blue™-CD40L cells (INVIVOGEN, Cat. Code hkb-cd40) containing a NF-kB-driven secreted alkaline phosphatase reporter gene were seeded into the assay plate at a density of 20,000 cells per well. This plate was then incubated for 18 h at 37° C. and 5% CO2. Secreted alkaline phosphatase expression was measured using QUANTI-Blue™ (INVIVOGEN, Cat. Code rep-qb1) according to manufacturer's specifications and the assay plate was read on a PerkinElmer Envision at 620 nm.
IC50 values were determined after correcting for background [(sample read-mean of low control)/(mean of high control-mean of low control)] where by the low control is DMSO without stimulation and high control is DMSO with stimulation.

IC50	SMILES
< 50 nM	CC(C)C[C@@H]1NC(=O)[C@H](Cc2ncc[nH]2)NC(=O)[C@H](C(C)C)NC(=O)[C@@H]2CCCN2C(=O)[C@H](C(C)C)NC(=O)[C@@H](CCCNC(=N)NCc2cccc(CNC(=N)N)c2)NC(=O)[C@H](CC(=O)O)NC(=O)[C@H](Cc2ccccn2)NC(=O)CN(C)C(=O)[C@H](Cc2ccc(-c3ccc(NC(=O)c4ccc(CC(=O)O)cc4)cc3)cc2)NC(=O)[C@H](Cc2ccc(-c3ccc(C(=O)O)cc3)cc2)NC(=O)[C@H](CC2CCCCC2)NC(=O)CSC[C@@H](C(=O)NCC(N)=O)NC1=O [Example 559] ({CH2CO}-[Cha][Bip(4'-COOH)][Bip(4'-NHCO-C6H4-4-CH2COOH)][Sar][2Pal]D[dArg(Nω-CH2C6H4-3-CH2Gua)]VPV[Ala(imidazol-2-yl)]LCG-NH2; thioether N-13)
50 to 200 nM	CC(=O)Nc1ccc(-c2ccc(C[C@@H]3NC(=O)[C@H](Cc4ccc(-c5ccc(C(=O)O)cc5)cc4)NC(=O)[C@H](CC4CCCCC4)NC(=O)CSC[C@@H](C(=O)NCC(N)=O)NC(=O)[C@H](CC(C)C)NC(=O)[C@H](Cc4cnc[nH]4)NC(=O)[C@H](C(C)C)NC(=O)[C@@H]4CCCN4C(=O)[C@H](C4CCCCC4)NC(=O)[C@@H](CCCNC(=N)N)NC(=O)[C@H](CC(=O)O)NC(=O)[C@H](Cc4cnc[nH]4)NC(=O)CN(C)C3=O)cc2)cc1 [Example 280] ({CH2CO}-[Cha][Bip(4'-COOH)][Bip(4'-NHAc)][Sar]HD[dR][Chg]PVHLCG-NH2; thioether N-13)
50 to 200 nM	CC(C)C[C@@H]1NC(=O)[C@H](CCCNC(=N)N)NC(=O)[C@H](C(C)C)NC(=O)[C@@H]2CCCN2C(=O)[C@H](C(C)C)NC(=O)[C@@H](CCCNC(=N)NC[C@H](O)CO)NC(=O)[C@H](CC(=O)O)NC(=O)[C@@H]2CCCN2C(=O)CN(C)C(=O)[C@H](Cc2ccc(-c3ccc(NC(=O)c4cccc(CC(=O)O)c4)cc3)cc2)NC(=O)[C@H](Cc2ccc(-c3ccccc3)cc2)NC(=O)[C@H](CN2CCOCC2)NC(=O)CSC[C@@H](C(=O)NCC(N)=O)NC1=O [Example 537] ({CH2CO}-[Ala(morpholin-4-yl)][Bip][Bip(4'-NHCO-C6H4-3-CH2COOH)][Sar]PD[dArg(ω-(2S)-2,3-diOHpropyl)]VPVRLCG-NH2; thioether N-13)
50 to 200 nM	CC(=O)Nc1ccc(-c2ccc(C[C@@H]3NC(=O)[C@H](Cc4ccc(-c5ccccc5)cc4)NC(=O)[C@H](CN4CCOCC4)NC(=O)CSC[C@@H](C(=O)NCC(N)=O)NC(=O)[C@H](CC(C)C)NC(=O)[C@H](CCCNC(=N)N)NC(=O)[C@H](C(C)(C)O)NC(=O)[C@@H]4CCCN4C(=O)[C@H](C(C)C)NC(=O)[C@@H](CCCNC(=N)N)NC(=O)[C@H](CC(=O)O)NC(=O)[C@@H]4CCCN4C(=O)CN(C)C3=O)cc2)cc1 [Example 160] ({CH2CO}-[Ala(morpholin-4-yl)][Bip][Bip(4'-NHAc)][Sar]PD[dR]VP[Val(3-OH)]RLCG-NH2; thioether N-13)
50 to 200 nM	CC[C@H](C)[C@@H]1NC(=O)[C@@H](CCCNC(=N)N)NC(=O)[C@H](CC(=O)O)NC(=O)[C@@H]2CCCN2C(=O)CN(C)C(=O)[C@H](Cc2ccc(-c3ccc(NC(=O)c4cccc(CC(=O)O)c4)cc3)cc2)NC(=O)[C@H](Cc2ccc(-c3ccc(C(=O)O)cc3)cc2)NC(=O)[C@H](C(C)(C)C)NC(=O)CSC[C@@H](C(=O)NCC(N)=O)NC(=O)[C@H](CC(C)C)NC(=O)[C@H](Cc2cnc[nH]2)NC(=O)[C@H](C(C)C)NC(=O)[C@@H]2CCCN2C1=O [Example 575] ({CH2CO}-[Tle][Bip(4'-COOH)][Bip(4'-NHCO-C6H4-3-CH2COOH)][Sar]PD[dR]IPVHLCG-NH2; thioether N-13)
< 50 nM	CC(C)C[C@@H]1NC(=O)[C@H](Cc2cccs2)NC(=O)[C@H](C(C)C)NC(=O)[C@@H]2CCCN2C(=O)[C@H](C(C)C)NC(=O)[C@@H](CCCNC(=N)N)NC(=O)[C@H](CC(=O)O)NC(=O)[C@H](Cc2ccccn2)NC(=O)CN(C)C(=O)[C@H](Cc2ccc(-c3ccc(NC(=O)c4cccc(OCC(=O)O)c4)cc3)cc2)NC(=O)[C@H](Cc2ccc(-c3ccccc3)cc2)NC(=O)[C@H](CN2CCOCC2)NC(=O)CSC[C@@H](C(=O)NCC(N)=O)NC1=O [Example 606] ({CH2CO}-[Ala(morpholin-4-yl)][Bip][Bip(4'-NH)](Benzoyl(3-OCH2COOH))[Sar][2Pal]D[dR]VPV[2Thi]LCG-NH2; thioether N-13)
200 to 2000 nM	CC(C)C[C@@H]1NC(=O)[C@H](Cc2ccc(O)cc2)NC(=O)[C@H](C(C)C)NC(=O)[C@@H]2CCCN2C(=O)[C@H](C(C)C)NC(=O)[C@@H](CCCNC(=N)N)NC(=O)[C@H](CC(=O)O)NC(=O)[C@H](Cc2ccc(O)cc2)NC(=O)CN(C)C(=O)[C@H](Cc2ccc(-c3ccccc3)cc2)NC(=O)[C@H](Cc2ccc(-c3ccc(C(=O)O)cc3)cc2)NC(=O)[C@H](Cc2c[nH]c3ccccc23)NC(=O)CSC[C@@H](C(=O)NCC(N)=O)NC1=O [Example 189] ({CH2CO}-W[Bip(4'-COOH)][Bip][Sar]YD[dR]VPVYLCG-NH2; thioether N-13)
< 50 nM	CC(C)C[C@@H]1NC(=O)[C@H](Cc2ccc(O)cc2)NC(=O)[C@H](C(C)C)NC(=O)[C@@H]2CCCN2C(=O)[C@H](C(C)C)NC(=O)[C@@H](CCCNC(=N)N)NC(=O)[C@H](CC(=O)O)NC(=O)[C@H](Cc2ccc(O)cc2)NC(=O)CN(C)C(=O)[C@H](Cc2ccc(-c3ccccc3)cc2)NC(=O)[C@H](Cc2ccc(-c3ccccc3)cc2)NC(=O)[C@H](CN2CCOCC2)NC(=O)CSC[C@@H](C(=O)NCC(N)=O)NC1=O [Example 68] ({CH2CO}-[Ala(morpholin-4-yl)][Bip][Bip][Sar]YD[dR]VPVYLCG-NH2; thioether N-13)
